From publication PMC10433220, “Oil palm kernel globulin antihypertensive peptides: isolation and characterization, ACE inhibition mechanisms, zinc-chelating activity, security and stability” (Frontiers in Pharmacology, 2023)
pIC50: −log10 of the molar value. Read-outs that look alike come from different tables or passages of the source. Where no end group is shown, it is not given here.

What was measured:
[1] = Zinc solubility of peptide-Zn complexes during simulated gastrointestinal digestion; assay type: in vitro ADME; settings: simulated intestinal digestion, from 120 to 240 min; p < 0.05
Procedure: Simultaneously, 5 mg of the DOPKGH peptide-Zn complexes was mixed with 50 mL of simulated gastric digested mucus (pH 2.00 ± 0.10) ([Sun et al., 2021]). After shaking at 37°C and 135 rpm for 90 min, Na2HPO4 (0.5 mol/L) was added and the mixture was quickly stirred until the pH of the digest increased to 6.80 ± 0.10. […] The stability of DOPKGH peptide-Zn complexes was expressed as the residual zinc concentration after digestion and as a percentage of the zinc concentration before digestion.

ACE [2] = target: T1, ACE (Oryctolagus cuniculus, UniProt P12822); test: Stability of ACE inhibitory activity under simulated gastrointestinal hydrolysis; assay type: in vitro ADME
T1 construct: purchased Sigma (St. Louis, MO, United States)
T1 sequence (P12822 34-1310): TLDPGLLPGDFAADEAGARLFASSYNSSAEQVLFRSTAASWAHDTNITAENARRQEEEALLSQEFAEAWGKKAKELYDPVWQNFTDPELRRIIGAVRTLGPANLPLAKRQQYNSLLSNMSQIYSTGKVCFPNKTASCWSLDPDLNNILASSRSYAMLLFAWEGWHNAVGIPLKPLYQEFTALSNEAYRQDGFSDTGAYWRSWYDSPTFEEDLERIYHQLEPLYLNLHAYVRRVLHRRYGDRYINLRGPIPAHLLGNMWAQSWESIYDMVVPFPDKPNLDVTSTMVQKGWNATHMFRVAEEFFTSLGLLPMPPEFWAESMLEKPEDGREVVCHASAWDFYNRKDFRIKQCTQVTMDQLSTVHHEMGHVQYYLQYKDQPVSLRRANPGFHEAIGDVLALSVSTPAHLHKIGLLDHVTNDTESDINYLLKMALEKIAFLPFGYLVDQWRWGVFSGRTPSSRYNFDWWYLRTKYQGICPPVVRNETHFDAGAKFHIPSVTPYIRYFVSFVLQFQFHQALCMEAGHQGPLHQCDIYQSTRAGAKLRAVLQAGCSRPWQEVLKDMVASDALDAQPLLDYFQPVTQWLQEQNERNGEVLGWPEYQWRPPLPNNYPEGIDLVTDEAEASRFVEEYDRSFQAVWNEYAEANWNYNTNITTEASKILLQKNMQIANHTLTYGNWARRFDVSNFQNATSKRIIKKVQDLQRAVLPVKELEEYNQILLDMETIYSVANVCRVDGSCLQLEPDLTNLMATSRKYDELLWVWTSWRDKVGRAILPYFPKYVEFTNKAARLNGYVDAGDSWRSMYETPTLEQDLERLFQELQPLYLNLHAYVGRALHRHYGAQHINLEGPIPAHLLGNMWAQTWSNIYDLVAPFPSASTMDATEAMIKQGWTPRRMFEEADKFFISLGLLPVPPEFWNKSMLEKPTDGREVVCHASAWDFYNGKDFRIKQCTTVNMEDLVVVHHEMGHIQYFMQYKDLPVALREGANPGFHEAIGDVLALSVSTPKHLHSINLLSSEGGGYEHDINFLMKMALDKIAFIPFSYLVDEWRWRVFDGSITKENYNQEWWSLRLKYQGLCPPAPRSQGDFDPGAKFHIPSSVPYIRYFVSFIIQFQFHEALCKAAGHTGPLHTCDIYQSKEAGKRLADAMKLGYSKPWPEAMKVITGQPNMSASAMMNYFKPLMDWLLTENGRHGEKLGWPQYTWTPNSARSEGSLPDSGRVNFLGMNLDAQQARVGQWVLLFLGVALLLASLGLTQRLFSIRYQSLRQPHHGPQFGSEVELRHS
Procedure: (§1) ACE inhibitory activity was determined using the procedure described by [Zaharuddin et al. (2022)]. Briefly, ACE (25 mU) was pre-incubated at 37°C for 10 min. Then ACE (75 µL), 225 µL of HHL (8.3 mmol/L), and the peptide solution (75 µL) were mixed and stirred at 75 rpm and 37°C for 60 min. The reaction was stopped by adding 375 µL of HCl (1 mol/L). Afterward 2.1 mL of ethyl acetate was added to extract the hippuric acid produced. The mixture was centrifuged at 14,000 g for 150 s. Subsequently, 1 mL of the upper solution (ethyl acetate extraction) was transferred to a glass test tube and heated at 120°C for 32 min. The tube was cooled to 25°C, deionized water (1 mL) was added, and the absorbance was measured at 228 nm. The control group was subjected to the same procedure, but without samples. The ACE inhibition ability of the samples was defined as the percentage of the difference in absorbance at 228 nm between the sample and control as compared to the absorbance at 228 nm of the control. The concentration of peptides required to inhibit half of the ACE activity was defined as the IC50.
The simulation intestinal digest mucus (pH 6.80 ± 0.10) was composited of 6 g bile salt, 0.07 g pancreatin, 12.5 g NaHCO3, and 200 mL ultrapure water. […] The ACE inhibitory activity of the DOPKGH peptide was determined using untreated DOPKGH peptides for comparison.

ACE [3] = target: T1, ACE; test: ACE inhibitory activity (HHL substrate, hippuric acid absorbance at 228 nm); assay type: biochemical; settings: synthesized peptide, untreated; ACE 25 mU, HHL 8.3 mmol/L, 37°C, 60 min, absorbance 228 nm; from regression y = 10.985 ln(x) ‒ 0.8859, R2 = 0.9458; read-out: ACE inhibition capacity (IC50)
Procedure: as §1

ACE [4] = target: T1, ACE; set-up: method as in 2 sources, one per row (each row's own in cited_ref): ref Wang et al., 2021 ||| ref Wei et al., 2022; settings: cited from earlier work
[5] = Zn-chelating ability (4-(2-Pyridinazo)-resorcinol method); assay type: physicochemical; settings: 350 μg sample, zinc sulfate 0.25 mmol/L, DTT, HEPES-KOH buffer, 37°C, 12 min, PAR method, absorbance 500 nm; mean ± SD, at least three repeats
Procedure: DOPKGH peptides (350 μg), 0.5 mL zinc sulfate solution (0.25 mmol/L), 0.5 mL DTT (8 mmol/L), 1 mL HEPES-KOH buffer (100 μmol/L), and 8 mL dH2O were mixed thoroughly ([Li et al., 2023]). After stirring at 175 r/min and 37°C for 12 min, the zinc concentration of the reaction solution was measured using the 4-(2-Pyridinazo)-resorcinol method ([Udechukwu et al., 2018]). The standard regression curve of the zinc concentration (x, μg/mL) with absorbance at 500 nm (y) was y = 0.0901n(x) + 0.1012, and R^2 = 0.9802 ([Li et al., 2023]). The zinc chelation rate was defined as the reduction of zinc ions in the reaction solution per unit mass of sample (mg/g).
Amino acid sequence identification was conducted using a Q Exactive hybrid quadrupole orbitrap mass spectrometer (Thermo Fisher, Bremen, Germany) coupled with Peak-Studio-7.5-De-Novo™ software (Bioinformatics Solutions, Inc., Waterloo, Canada) according to the method described by [Li et al. (2022)]. The DOPKGH sequences were verified by matching with the sequences of Elaeis guineensis recorded in the Biotechnology Information Database (Bethesda, MD, United States). The Zn-chelating ability of the obtained sequences was measured using the 4-(2-Pyridinazo)-resorcinol method ([Udechukwu et al., 2018]). […] In addition, the physicochemical characteristics of the screened DOPKGH sequences were analyzed using the AHTPDB database.

ACE [6] = target: T1, ACE; settings: Val residue at the N-terminal; peptide from King Bolete mushrooms; ref Kaprasob et al., 2022; cited from earlier work
Excerpt: Moreover, Lys or Arg residues in C-terminal tripeptide are instrumental in the ACE-inhibitory ability of peptides ([Urbizo-Reyes et al., 2022]).

**Q.** For O=C([O-])[C@H](O)[C@@H](O)[C@H](O)[C@H](O)CO.O=C([O-])[C@H](O)[C@@H](O)[C@H](O)[C@H](O)CO.[Zn+2] [zinc gluconate, Zinc gluconate], which “Zinc solubility compared with zinc sulfate” value [1] is on record?
**A.** higher zinc solubility than that of zinc sulfate

**Q.** For EVPQAYIP, which “ACE-inhibitory activity retained after gastrointestinal digestion” value (ACE [2]; simulated gastric (pepsin, pH 2.0, 80 min) then intestinal (pancreatin, pH 6.8, 150 min) digestion, 37°C, versus untreated peptide) is on record?
**A.** 71.23%

**Q.** And the pIC50 (ACE [2]; simulated gastric digest (pepsin 0.35 mg/mL, pH 2.0) 37°C 80 min, then intestinal digest (pancreatin, bile salt, pH 6.8) 37°C 150 min, regression y = 13.536ln(x) ‒ 17.297, R2 = 0.9528, read-out: IC50 against ACE after gastrointestinal digestion)?
**A.** 3.84

**Q.** And the pIC50 (ACE [3])?
**A.** 3.99

**Q.** With GNPLSP as the compound, how does the pIC50 (ACE [4]; peptide derived from Arthrospira platensis, ref Wang et al., 2021, read-out: ACE inhibition IC50) read?
**A.** 3.58

**Q.** For PHQPLPP, which “ACE inhibition IC50” value (ACE [4]; peptide identified in rubing cheese, ref Wei et al., 2022) is on record?
**A.** 0.821 mg/mL

**Q.** Which Zinc chelating capacity [5] does the source give for “QRLERCK [Gln-Arg-Leu-Asp-Arg-Cys-Lys, oligopeptide identified in defatted oil palm kernel globulin hydrolysates]” here?
**A.** 17.30 ± 1.46^g mg/g

**Q.** With “VSWNVLQEP [literature peptide identified in King Bolete mushrooms]” as the compound, how does the “Binding energy with ACE” value (ACE [6]) read?
**A.** -9.1 kcal/mol
